Assay results from US7018995B2, “Carbonate and carbamate modified forms of glucocorticoids” (Sepracor Inc., priority 2002, dated 2006).

Legend:
[1] = test system: WI-38 human lung fibroblast line (IL-1β-stimulated PGE2); assay: Inhibition of IL-1β-stimulated PGE2 release in WI-38 cells; type: cell-based; settings: WI-38 cells stimulated with recombinant human IL-1β, 24 hours incubation, PGE2 by EIA; read-out: IC50 (level of PGE2 in supernatants)
Protocol: Compounds as described above were tested in the following assay for biological activity. The WI-38 human lung fibroblast line was obtained from the ATCC (catalog number 75-CCL) and maintained in Basal Medium Eagle with Earle's salts (GibcoBRL product number 21010-046) supplemented with 2 mM glutamine and 10% fetal calf serum at 37° C. in a 7% CO2 (balance air), humidified atmosphere. One week before experiments were done, the WI-38 cells were seeded into 48-well tissue culture dishes and maintained in media containing 10% fetal calf serum. The cells were used when confluent. The day before the experiment the cells were fed fresh media containing 10% fetal calf serum (0.25 mL per well). On the day of the experiment the media was removed from the cells and 0.25 mL of media containing 5% fetal calf serum added.
To determine the IC50 values for the compounds, 1 to 1000 dilutions were made of the 5 mM stock solutions in DMSO to give 5 uM solutions. These solutions were serially diluted 1:2 in DMSO to give a series of 12 dilutions ranging from 5 uM to 2.4 nM. 0.0025 mL aliquots of the 12 dilutions were added to wells of the WI-38 cells to give final compound concentrations ranging from 50 nM to 0.024 nM. The cells were stimulated by addition of 0.001 mL of 0.025 ug/mL recombinant human Interleukin-1β (IL-1β-Calbiochem catalog number 407615) in 0.1% bovine serum albumin in phosphate buffered saline. The cells were incubated for 24 hours and the supernatants harvested. The level of PGE2 in the supernatants was assayed using a commercial Enzyme Immuno Assay (EIA) kit (Cayman Chemical catalog number 514010) after diluting 1:10 in EIA buffer according to the manufacturer's directions. The data from these experiments was fit to a 4 parameter logistic function using the IC50 routine in the Grafit 4 program (Erithecus software).

[2] = test system: rat paw edema; assay: Carrageenan rat paw edema model; type: in vivo; settings: for maximum activity at 24 hours / onset of action: rat paw edema; for reduction of swelling (percent inhibition of edema volume vs vehicle): injected into paw
Protocol: The compounds of the invention were also tested in vivo in a rat paw edema model [Hirschelmann, R. and Bekemeier, H., Int J Tissue React 6, 471-475 (1984)], which persons of skill in the art accept as predictive of efficacy in treating asthma and rhinitis in humans.
Rat Paw Edema Protocol: Male Sprague Dawley rats Rj: SD (IOPS Han) (CEJ, France) weighing between 140 and 160 grams were used in the studies. Animals were housed in a temperature (19.5-24.5° C.), relative humidity (40-70%) and 12-hour light/dark cycle (light 6:00 a.m. to 6:00 p.m.)-controlled room, with ad libitum access to filtered tap-water and standard pelleted laboratory chow (U.A.R., France) throughout the studies. Carrageenan lambda type IV (Sigma, France) was prepared as a 2% (w/v) solution in saline. Compounds to be tested were dissolved in dimethylsulfoxide (DMSO) such that the indicated doses were in a final volume of 0.05 mL. Doses were expressed as mg/paw free active substance. From 17 to 19 hours before the studies the rats were fasted with free access to water. The paw volumes of the left hindpaws of the rats were measured using an electronic plethysmometer type 7140 (Ugo Basile-Italy) at time=0. Paw edema was then induced by injection of 0.05 mL of 2% carrageenan solution into the left hindpaws of the rats. Immediately after injection of the carrageenan, compounds in DMSO or vehicle alone were injected into the same paw in a volume of 0.05 mL in a blind and random fashion.
The paw volumes were measured at 1.5 hours, 3 hours, 4.5 hours and 24 hours after administration of the compounds. The edema volume of each rat at each time point was expressed as the change from the initial paw volume (time=0). A total of 5 rats were used for each compound dose and the average edema volume calculated for each dose. The anti-inflammatory effect in treated groups was expressed as the percent inhibition of edema volume compared to the vehicle-treated group at 1.5 hours, 3 hours, 4.5 hours and 24 hours.

[3] = at 24 hours, equimolar doses equivalent to 10 μg per paw of budesonide, FIG. 1

| Compound | IC50 [1] [nM] | maximum activity at 24 hours [2] [%] | also measured |
| --- | --- | --- | --- |
| CCCC1OC2CC3C4CCC5=CC(=O)C=CC5(C)C4C(O)CC3(C)C2(C(=O)COC(=O)OCC(C)C)O1 (stereo not shown) [Example 1, Budesonide isobutylcarbonate] | 0.12 | – | – |
| CCCCCCCCCCOC(=O)OCC(=O)[C@@]12OC(CCC)O[C@@H]1C[C@H]1[C@@H]3CCC4=CC(=O)C=C[C@]4(C)[C@H]3[C@@H](O)C[C@@]12C (stereo partly shown) [Example 8, Budesonide decylcarbonate] | – | – | more efficacious than budesonide itself [2, 3]: 30% |
| CCCC1OC2CC3C4CCC5=CC(=O)C=CC5(C)C4C(O)CC3(C)C2(C(=O)COC(=O)OCCCCCCCCCCCN(C)C)O1 (stereo not shown) [Example 15, Budesonide 11-dimethylaminoundecylcarbonate] | – | 73 | – |
| CCCC1O[C@@H]2C[C@H]3[C@@H]4CCC5=CC(=O)C=C[C@]5(C)[C@H]4[C@@H](O)C[C@]3(C)[C@]2(C(=O)CO)O1 (stereo partly shown) [budesonide, reference compound] | 0.2 | – | reduction of swelling (percent inhibition of edema volume vs vehicle) [2, 3]: 46% |
| Budesonide dodecylcarbonate [Example 2] | 0.53 | – | reduction of swelling (percent inhibition of edema volume vs vehicle) [2, 3]: 88% |
| Budesonide farnesolcarbonate [Example 17] | – | 86 | onset of action [2]: normal onset of action |
| Budesonide heptylcarbonate [Example 14] | – | – | efficacy compared with the C6 carbonate ester [2, 3]: more efficacious |
| Budesonide hexylcarbonate [Example 3] | 0.14 | – | – |
| Budesonide phytolcarbonate [Example 16] | – | 69 | onset of action [2]: normal onset of action |
